Laboratory results taken from US20250066323A1, “INHIBITORS OF HUMAN RESPIRATORY SYNCYTIAL VIRUS AND METAPNEUMOVIRUS” (priority 2023, published 2025).
Where two headings read alike, the source gives them in different places.

Test system: RSV-A2-GFP
Experiment: RSV-A2-GFP viral replication assay
Type: cell-based, Human Respiratory Syncytial Virus
Source text: GFP sequence was derived from pJTI™ R4 Dest CMV N-EmGFP pA Vector (Invitrogen) and was cloned into the intergenic sequence between wild-type RSV-A2 P and M genes using standard recombineering techniques. Recombinant RSV-A2-GFP was propagated in Hep2 cells (human cells contains HeLa marker chromosomes and were derived via HeLa contamination, ATCC CCL-23) with infection Multiplicity of Infection (MOI) of 0.1. Virus was harvested 3 days after infection by collecting all culture material and freeze-thaw the viral culture in liquid nitrogen for at least 5 times. To generating virus working stocks, thaw frozen samples in 37° C. water bath then centrifuge at 218 g for 15 min at 4° C. Add 1/10 of 10×SPG (Biological Industries 06-3061-01-5A), mix, aliquot supernatant, and quick-freeze in liquid nitrogen then transfer to −80° C. freezer for storage. Virus titer was determined by automated plaque assay in HEp-2 cells following methods described previously (Wen Z. et al.; J Virol Methods. 2019 January; 263:88-95).
Calu-1 cells (human lung epidermoid carcinoma, ATCC HTB-54) assay ready freezedown (ARF generation described separately) were used in assays. Compound plates were prepared by dispensing compounds dissolved in DMSO into wells of 384 well coming 3985 polystyrene flat clear bottom optical imaging microplates (202.5 nL/well) using an ECHO acoustic dispenser. Each compound was tested in a 10-point serial 3-fold dilution (typical final concentrations: 403 nM-0.02 nM and 40.3 nM-0.002 nM). […] To set up the assay, thaw ARF vial(s) in 37° C. water bath until small ice crystal remain and resuspend into assay media (DMEM containing 2% FBS, 100 U/ml Penicillin-Streptomycin). Count cells using default parameters on ViCell and dilute to 20,000 cells per ml in assay media. Add RSV GFP to cells at 24,000 pfu/ml (MOI=1.2). Mix by gentle inversion. 10 μl/well of 100% DMSO was dispensed to CellTiter-Glo (CTG) assay Max_E controls wells. Dispense cells at 50 μl/well using Bravo and 50 μl filtered tips into compound plates. Cover plates with MicroClime lids loaded with 7.5 ml of assay media to minimize evaporation. Incubate at 37 degrees C. and 5% CO2 for 96 hrs. Following incubation, distinct, GFP-expressing cells are counted using an Acumen imaging system with appropriate settings. A same-well CTG assay is performed by adding 10 μl/well reconstituted CellTiter-Glo reagent (Promega G7573) and reading plates on PerkinElmer Envision according to manufacturer's instructions. Raw data were loaded and analyzed in ActivityBase. Antiviral IC50 and cytotoxicity CC50 values were determined using a 4 parameter logistic fit based on the Levenberg-Marquardt algorithm. Model: 205-4 Parameter Logistic.
Calu-1 cells were purchased from ATCC (Cat #HTB-54) and are expanded in growth media (DMEM containing 10% FBS, 100 U/ml Penicillin-Streptomycin). To make ARF, remove and discard cell culture media, briefly rinse the cell layer with PBS to remove all traces of serum. Add 2.5 ml of TrypLE Express solution and incubate until cells dislodge, then add growth media and resuspend the cells by gentle pipetting. Count cells for concentration and determine viability using a ViCell. Centrifuge at RT, 300 g for 5 min to pellet cells. Gently aspirate supernatant, flick pellet to loosen cells. Resuspend cells in an appropriate volume of freezing medium (DMEM containing 10% DMSO, 10% FBS, 100 U/ml Penicillin-Streptomycin) to achieve 5×10^6/ml. Transfer 1 ml of cell suspension to freezing vials. Put vials to CoolCell cryopreservation container and place CoolCell container upright in a −80° C. freezer overnight before transferring vials to liquid nitrogen vapor for storage.

[1] = read-out: RSV EC50, Calu-1 cells, RSV-A2-GFP MOI=1.2, 96 hrs, GFP-expressing cells counted
[2] = human respiratory syncytial virus, Calu-1, 96 h, read-out: RSV EC50, Calu-1 cells, RSV-A2-GFP MOI=1.2, 96 hrs, GFP-expressing cells counted

Question: With `Cn1nc(-n2cccn2)cc1C(=O)NCC(C)(O)c1cc2c(c(-c3ccc(F)cc3)n1)OCC2(C)C(N)=O` (single isomer, unassigned) [Example 29-A, 7-(4-fluorophenyl)-5-(2-hydroxy-1-(1′-methyl-1′H-[1,3′-bipyrazole]-5′-carboxamido)propan-2-yl)-3-methyl-2,3-dihydrofuro[2,3-c]pyridine-3-carboxamide] as the compound, how does the EC50 [1] read?
Answer: 10 to 100 nM

Question: `Cn1nc(-n2cccn2)cc1C(=O)NCC(C)(O)c1cc2c(c(-c3ccc(F)cc3)n1)OCC2(C)C(N)=O` (single isomer, unassigned) [Example 29-B, 7-(4-fluorophenyl)-5-(2-hydroxy-1-(1′-methyl-1′H-[1,3′-bipyrazole]-5′-carboxamido)propan-2-yl)-3-methyl-2,3-dihydrofuro[2,3-c]pyridine-3-carboxamide] was tested. Which EC50 [1] did it give?
Answer: > 100 nM

Question: How did the EC50 [1] turn out when `Cn1nc(-n2cccn2)cc1C(=O)NCC(C)(O)c1cc2c(c(-c3ccc(F)cc3)n1)OCC2(C)C(N)=O` (single isomer, unassigned) [Example 29-C, 7-(4-fluorophenyl)-5-(2-hydroxy-1-(1′-methyl-1′H-[1,3′-bipyrazole]-5′-carboxamido)propan-2-yl)-3-methyl-2,3-dihydrofuro[2,3-c]pyridine-3-carboxamide] was run?
Answer: < 10 nM

Question: Which EC50 [1] does the source give for `Cn1nc(-n2cccn2)cc1C(=O)NCC(C)(O)c1cc2c(c(-c3ccc(F)cc3)n1)OCC2(C)C(N)=O` (single isomer, unassigned) [Example 29-D, 7-(4-fluorophenyl)-5-(2-hydroxy-1-(1′-methyl-1′H-[1,3′-bipyrazole]-5′-carboxamido)propan-2-yl)-3-methyl-2,3-dihydrofuro[2,3-c]pyridine-3-carboxamide] here?
Answer: 10 to 100 nM

Question: How did the EC50 [2] turn out when `Cn1nc(-c2cscn2)cc1C(=O)NCC(O)(c1cc2c(c(-c3ccc(F)cc3)n1)OCC2(C)C(N)=O)C(F)(F)F` (single isomer, unassigned) [Example 30-B, 7-(4-fluorophenyl)-3-methyl-5-(1,1,1-trifluoro-2-hydroxy-3-(1-methyl-3-(thiazol-4-yl)-1H-pyrazole-5-carboxamido)propan-2-yl)-2,3-dihydrofuro[2,3-c]pyridine-3-carboxamide] was run?
Answer: < 10 nM

Question: `Cn1nc(-c2cscn2)cc1C(=O)NCC(C)(O)c1cc(C(C)(C)C(N)=O)cc(-c2ccc(F)cc2)n1` (single isomer, unassigned) [Example 31-A, N-(2-(4-(1-amino-2-methyl-1-oxopropan-2-yl)-6-(4-fluorophenyl)pyridin-2-yl)-2-hydroxypropyl)-1-methyl-3-(thiazol-4-yl)-1H-pyrazole-5-carboxamide] was tested. Which EC50 [1] did it give?
Answer: > 100 nM

Question: How did the EC50 [1] turn out when `Cn1nc(-c2cscn2)cc1C(=O)NCC(C)(O)c1cc(C(C)(C)C(N)=O)cc(-c2ccc(F)cc2)n1` (single isomer, unassigned) [Example 31-B, N-(2-(4-(1-amino-2-methyl-1-oxopropan-2-yl)-6-(4-fluorophenyl)pyridin-2-yl)-2-hydroxypropyl)-1-methyl-3-(thiazol-4-yl)-1H-pyrazole-5-carboxamide] was run?
Answer: < 10 nM

Question: Which EC50 [1] does the source give for `Cn1nc(-c2cscn2)cc1C(=O)NCC(C)(O)c1cc(C(C)(C)O)cc(-c2ccc(F)cc2)n1` (single isomer, unassigned) [Example 32-A, N-(2-(6-(4-fluorophenyl)-4-(2-hydroxypropan-2-yl)pyridin-2-yl)-2-hydroxypropyl)-1-methyl-3-(thiazol-4-yl)-1H-pyrazole-5-carboxamide] here?
Answer: > 100 nM

Question: Which EC50 [1] does the source give for `Cn1nc(-c2cscn2)cc1C(=O)NCC(C)(O)c1cc(C(C)(C)O)cc(-c2ccc(F)cc2)n1` (single isomer, unassigned) [Example 32-B, N-(2-(6-(4-fluorophenyl)-4-(2-hydroxypropan-2-yl)pyridin-2-yl)-2-hydroxypropyl)-1-methyl-3-(thiazol-4-yl)-1H-pyrazole-5-carboxamide] here?
Answer: < 10 nM

Question: Which EC50 [1] does the source give for `CC(N)C(C)(C)c1cc(-c2ccc(F)cc2)nc(C(C)(O)CNC(=O)c2cc(-n3cccn3)nn2C)c1` (single isomer, unassigned) [Example 33-A, N-(2-(4-(3-amino-2-methylbutan-2-yl)-6-(4-fluorophenyl)pyridin-2-yl)-2-hydroxypropyl)-1′-methyl-1′H-[1,3′-bipyrazole]-5′-carboxamide] here?
Answer: > 100 nM

Question: How did the EC50 [1] turn out when `CC(N)C(C)(C)c1cc(-c2ccc(F)cc2)nc(C(C)(O)CNC(=O)c2cc(-n3cccn3)nn2C)c1` (single isomer, unassigned) [Example 33-B, N-(2-(4-(3-amino-2-methylbutan-2-yl)-6-(4-fluorophenyl)pyridin-2-yl)-2-hydroxypropyl)-1′-methyl-1′H-[1,3′-bipyrazole]-5′-carboxamide] was run?
Answer: > 100 nM

Question: `CC(N)C(C)(C)c1cc(-c2ccc(F)cc2)nc(C(C)(O)CNC(=O)c2cc(-n3cccn3)nn2C)c1` (single isomer, unassigned) [Example 33-C, N-(2-(4-(3-amino-2-methylbutan-2-yl)-6-(4-fluorophenyl)pyridin-2-yl)-2-hydroxypropyl)-1′-methyl-1′H-[1,3′-bipyrazole]-5′-carboxamide] was tested. Which EC50 [1] did it give?
Answer: < 10 nM

Question: How did the EC50 [1] turn out when `CC(N)C(C)(C)c1cc(-c2ccc(F)cc2)nc(C(C)(O)CNC(=O)c2cc(-n3cccn3)nn2C)c1` (single isomer, unassigned) [Example 33-D, N-(2-(4-(3-amino-2-methylbutan-2-yl)-6-(4-fluorophenyl)pyridin-2-yl)-2-hydroxypropyl)-1′-methyl-1′H-[1,3′-bipyrazole]-5′-carboxamide] was run?
Answer: < 10 nM

Question: For `Cn1nc(-n2cccn2)cc1C(=O)NCC(O)c1cc(C(C)(C)N)cc(-c2ccc(F)cc2)n1` (single isomer, unassigned) [Example 34-A, N-(2-(4-(2-aminopropan-2-yl)-6-(4-fluorophenyl)pyridin-2-yl)-2-hydroxyethyl)-1′-methyl-1′H-[1,3′-bipyrazole]-5′-carboxamide], which EC50 [1] is on record?
Answer: < 10 nM

Question: With `Cn1nc(-n2cccn2)cc1C(=O)NCC(O)c1cc(C(C)(C)N)cc(-c2ccc(F)cc2)n1` (single isomer, unassigned) [Example 34-B, N-(2-(4-(2-aminopropan-2-yl)-6-(4-fluorophenyl)pyridin-2-yl)-2-hydroxyethyl)-1′-methyl-1′H-[1,3′-bipyrazole]-5′-carboxamide] as the compound, how does the EC50 [1] read?
Answer: > 100 nM

Question: With `Cn1nc(-n2cccn2)cc1C(=O)NCC(O)(c1cc(C(C)(C)N)cc(-c2ccc(F)cc2)n1)C1CC1` (single isomer, unassigned) [Example 35-B, N-(2-(4-(2-aminopropan-2-yl)-6-(4-fluorophenyl)pyridin-2-yl)-2-cyclopropyl-2-hydroxyethyl)-1′-methyl-1′H-[1,3′-bipyrazole]-5′-carboxamide] as the compound, how does the EC50 [2] read?
Answer: < 10 nM

Question: Which EC50 [2] does the source give for `Cn1nc(-n2cccn2)cc1C(=O)NCC(O)(c1cc(C(C)(C)N)cc(-c2ccc(F)cc2)n1)C(F)(F)F` (single isomer, unassigned) [Example 36-A, N-(2-(4-(2-aminopropan-2-yl)-6-(4-fluorophenyl)pyridin-2-yl)-3,3,3-trifluoro-2-hydroxypropyl)-1′-methyl-1′H-[1,3′-bipyrazole]-5′-carboxamide] here?
Answer: < 10 nM

Question: How did the EC50 [2] turn out when `Cn1nc(-n2cccn2)cc1C(=O)NCC(C)(O)c1cc(C(C)(C)N)cc(-c2ccc(C(F)(F)F)cc2)n1` (single isomer, unassigned) [Example 37-B, N-(2-(4-(2-aminopropan-2-yl)-6-(4-(trifluoromethyl)phenyl)pyridin-2-yl)-2-hydroxypropyl)-1′-methyl-1′H-[1,3′-bipyrazole]-5′-carboxamide] was run?
Answer: < 10 nM

Question: `Cn1nc(-n2cccn2)cc1C(=O)NCC(C)(O)c1cc(C(C)(C)N)cc(-c2ccc(F)c(F)c2)n1` (single isomer, unassigned) [Example 38-B, N-(2-(4-(2-aminopropan-2-yl)-6-(3,4-difluorophenyl)pyridin-2-yl)-2-hydroxypropyl)-1′-methyl-1′H-[1,3′-bipyrazole]-5′-carboxamide] was tested. Which EC50 [2] did it give?
Answer: < 10 nM
